In paper PMC12295927, “Design, Synthesis, and Testing of 1,2,3-Triazolo-Quinobenzothiazine Hybrids for Cytotoxic and Immunomodulatory Activity” (International Journal of Molecular Sciences, 2025):

Tests used:
[1] = test system: xenografted MGC-803 tumor; parameters: method as in PMID 30345465; conditions: oral study; cited from earlier work
[2] = test system: MGC-803 gastric cancer cells; parameters: method as in PMID 30345465; conditions: cited from earlier work
IL6 gene = experiment: RT-qPCR IL6 gene expression in BEAS-2B; type: cell-based, Human; conditions: Homo sapiens, 24 h, reference gene RPL41, vs untreated control, read-out: Relative level of expression, IL6 gene
Experimental: (§1) Real-time polymerase chain reaction was performed for the reference gene RPL41 (ribosomal protein L41) and the tested genes: BCL2, AIFM2, MDM2, IL6 and IL8. […] The BEAS-2B line was selected for the experiment. The expression level of selected genes was measured after 24 h of incubation with the tested substances MJ1–MJ20 at a concentration of 100 μM (Table 3).
(§2) The RT-qPCR experiment was performed for the BEAS-2B cell line. In this experiment, the IL6 and IL8 genes were studied and RPL41 was used as a reference gene (Figure 17 and Figure 18).
(§3) Gene expression studies used quantitative RT-qPCR to assess the effect of the tested quinobenzothiazines (MJ1–MJ20) on the expression of apoptosis-related genes (BCL2, AIFM2, MDM2) and pro-inflammatory cytokines (IL6, IL8) (Table 4).
(§4) BEAS-2B and HCT116 cells were seeded in 6-well plates at 2 × 10^5 cells per well and cultured in RPMI-1640 (BEAS-2B) or DMEM (HCT116) medium supplemented with 10% FBS and 1% penicillin/streptomycin at 37 °C, 5% CO2 and 95% humidity. After 24 h of incubation, the tested compounds were added at a concentration of 100 µM. After 24 h, the medium was removed from the cells, washed with PBS solution, 0.5 mL of trypsin was added per well and after 5 min it was neutralized with medium. The obtained cell suspension was centrifuged for 3 min at 2000 rpm, the supernatant was removed, and the obtained pellet was suspended in 400 µL of phenozol. Samples were frozen at −20 °C and stored until further experiment and RNA isolation.
(§5) Total RNA was isolated from cells using the A&A Biotechnology Total RNA Mini kit according to the manufacturer’s protocol. RNA quality and quantity were assessed using a NanoDrop 2000 spectrophotometer at 260/280 nm. Reverse transcription was performed using the protocol (EURx NG dART RT Kit) to obtain cDNA. After incubation, samples were placed in a freezer (−20 °C) and stored until further analysis.
(§6) The experiment was performed according to the protocol (Brilliant III Ultra Fast SYBR® Green QPCR Master Mix, Quick Reference Guide for the Bio-Rad CFX96 Real-Time PCR Detection System). RT-qPCR reaction was performed using specific primers for target genes (BCL2, AIFM2, MDM2, IL6, IL8). Gene expression was normalized to the expression of the reference gene RPL41. Reaction profiles and results were performed using Bio-Rad CFX Maestro 1.1 software from Bio-Rad. Analysis and calculations of the results obtained during RT-qPCR were performed using Microsoft Excel.
(§7) The results were analyzed using the R = 2^−ΔΔCt method, which allows for determining the relative level of gene expression (R) compared to the control. Each experiment was performed in three technical and biological replicates. RT-qPCR allowed for precise assessment of changes in the expression of genes related to the processes of apoptosis and inflammatory response under the influence of quinobenzothiazines, which allowed for identifying their potential mechanisms of action at the molecular level.

IL8 gene = experiment: RT-qPCR IL8 gene expression in BEAS-2B; type: cell-based; conditions: Homo sapiens, 24 h, reference gene RPL41, vs untreated control, read-out: Relative level of expression, IL8 gene
Experimental: as §1, §2, §3, §4, §5, §6, §7

BCL2 gene = experiment: RT-qPCR BCL2 gene expression in BEAS-2B; type: cell-based, Human; conditions: Homo sapiens, 24 h, reference gene RPL41, vs untreated control, read-out: Relative level of expression, BCL2 gene
Experimental: as §1
The RT-qPCR experiment was performed for the BEAS-2B cell line. In this experiment, the BCL2 gene was studied, and RPL41 was used as the reference gene (Figure 14).
as §3, §4, §5, §6, §7

BEAS-2B = experiment: Alamar Blue cytotoxicity test, BEAS-2B; type: cell-based, Human; conditions: Homo sapiens, 24 h, 24 h incubation, read-out: IC50 values for BEAS-2B line
Experimental: The cytotoxicity of the tested chemical compounds MJ1–MJ20 was tested using the Alamar Blue test. The experiment was conducted on cell lines BEAS-2B (Figure 7), HCT116 (Figure 8), U2OS (Figure 9), MCF7 (Figure 10), SH-SY5Y (Figure 11), NHDF (Figure 12), and A549 (Figure 13). Cells were seeded in 96-well plates and incubated with the tested compounds for 24 h. The test result is the IC50 parameter, which is a measure of cytotoxic activity expressed by the concentration of the substance that causes the death of half of the analyzed cells compared to the control.
In cytotoxicity studies, the Alamar Blue test was used, which is based on the ability of living cells to reduce the non-fluorescent dye resazurin to fluorescent resorufin, which reflects the metabolic activity of cells. BEAS-2B, NHDF, HCT116, MCF7, A549, SH-SY5Y and U2OS cell lines were cultured under standard conditions, in DMEM medium supplemented with 10% FBS and 1% penicillin/streptomycin, at 37 °C, 5% CO2 and 95% humidity. Cells were seeded in 96-well plates at 1 × 10^4 cells per well and incubated for 24 h. Then, the tested compounds (MJ1–MJ20) were added at different concentrations (from 6.25 µM to 100 µM). The control contained cells untreated with the tested compounds. After 24 h of incubation, 10 µL of Alamar Blue solution was added to each well and incubated for another 2–4 h under the same conditions. The signal was measured spectrophotometrically at wavelengths of 570 nm (for resorufin) and 600 nm (for resazurin) or optionally fluorimetrically, using an excitation maximum of 570 nm and an emission maximum of 585 nm. The results were presented as percentage of cell survival relative to the control, calculating the ratio of absorbance or fluorescence of the sample to the control value. The Alamar Blue assay, due to its sensitivity and non-toxicity, allows for an accurate assessment of metabolic activity and cell survival in response to the tested quinobenzothiazines.

MDM2 gene = experiment: RT-qPCR MDM2 gene expression in BEAS-2B; type: cell-based, Human; conditions: Homo sapiens, 24 h, reference gene RPL41, vs untreated control, read-out: Relative level of expression, MDM2 gene
Experimental: as §1
The RT-qPCR experiment was performed for the BEAS-2B cell line. In this experiment, the MDM2 gene was studied and RPL41 was used as reference gene (Figure 15).
as §3, §4, §5, §6, §7

AIFM2 gene = experiment: RT-qPCR AIFM2 gene expression in BEAS-2B; type: cell-based, Human; conditions: Homo sapiens, 24 h, reference gene RPL41, vs untreated control, read-out: Relative level of expression, AIFM2 gene
Experimental: as §1
The RT-qPCR experiment was performed for the BEAS-2B cell line. In this experiment, the AIFM2 gene was studied and RPL41 was used as reference gene (Figure 16).
as §3, §4, §5, §6, §7

Row | Structure (SMILES) | Growth of xenografted MGC-803 tumor in vivo [1] | IC50 [2] | fold induction at 100 µM (IL6 gene) | fold induction at 100 µM (IL8 gene) | fold induction at 100 µM (BCL2 gene) | IC50 (BEAS-2B) | fold induction at 100 µM (MDM2 gene) | fold induction at 100 µM (AIFM2 gene)
1 | COc1ccc(-n2cc(CN3c4ccccc4Sc4ccccc43)nn2)cc1 [compound A] | effectively inhibit the growth | 1.2 µM | – | – | – | – | – | –
2 | Clc1ccc(Cn2cc(CN3c4ccccc4Sc4cc5ccccc5nc43)nn2)cc1 [MJ3, 6-[(1-(4-Chlorobenzyl)-1H-1,2,3-triazol-4-yl)methyl]-quino[3,2-b]benzo[1,4]thiazine] | – | – | 1.3 | 0.3 | 5.7 | 75.4 µM | 5.9 | 1.3
3 | Clc1ccc2c(c1)Sc1cc3ccccc3nc1N2Cc1cn(Cc2ccccc2)nn1 [MJ11, 9-Chloro-6-[(1-benzyl-1H-1,2,3-triazol-4-yl)-methyl]-quino[3,2-b]benzo[1,4]thiazine] | – | – | 5.7 | 1.4 | 49.9 | 88.1 µM | 4.6 | 0.8
